“And” between values parts separate entries of the source, which are not always exact repeats. Equal values may be shown once.

`CC(=O)Oc1ccc([N+](=O)[O-])cc1` [4-nitrophenyl acetate] gave a melting point of 78 °C.
The figure for `CCCCCCCCCCCCCCCCCCCCCCC` [N-tricosane] is 49 °C; for `CCOCCOC(C)=O` [2-ethoxyethyl acetate] it is -62 °C; for `CC12CCC=C1C1CCC3CC(O)CCC3(C)C1CC2` (stereo not given) [androst-14-en-3-ol] it is 130 °C.
The figure for `CC(=O)C1=CCC2(C)C(CCC3C4CCC(=O)C4(C)CCC32)C1` (stereo not given) [3-acetylandrost-2-en-17-one] is 153 °C; for `CCC(=O)O` [propanoic acid] it is -20.7 °C; for `Clc1ccc(C(c2ccc(Cl)cc2)C(Cl)(Cl)Cl)cc1` [DDT] it is 109 °C (4×) and 108 °C (2×).
With `COC(=O)c1c(Cl)c(Cl)c(C(=O)OC)c(Cl)c1Cl` [dimethyl tetrachloroterephthalate] the figure was 157 °C; with `CCOC(C)(C)C` [2-Ethoxy-2-methylpropane], -94 °C.
Molecule `OCC#CCO` [2-butyne-1,4-diol] yielded a melting point of 57 °C.
`CC(CN1c2ccccc2Sc2ccccc21)N(C)C` (stereo not given) [promethazine]: the melting point was determined as 60 °C.
Molecule `CC(C)(C)[Si](C)(C)Oc1cccc(B(O)O)c1` [3-(tert-butyldimethylsiloxy)benzeneboronic acid] showed a melting point of 89 °C.
With `COc1ccccc1NC(=O)/C=CC(=O)O` [N-(2-methoxyphenyl)maleamic acid] the figure was 144 °C.
Consider `CC(C)(C)N` [2-Methylpropan-2-amine], for which the melting point is -67 °C.
With `O=[N+]([O-])c1cccc(C=Cc2cccc([N+](=O)[O-])c2)c1` [1,1'-[1,2-Ethenediyl]bis[3-nitrobenzene]] the figure was 88 °C.
With `OB(O)c1ccccc1-c1ccccc1` [biphenyl-2-boronic acid] the figure was 179 °C.
With `CCBr` [bromoethane], the melting point was -119 °C.
The figure for `CCCCCCCC(=O)O` [octanoic acid] is 16.3 °C and 17 °C; for `O=C(Oc1ccccc1)c1ccccc1C(=O)Oc1ccccc1` [diphenyl phthalate] it is 75 °C; for `Cc1ccc(NC(=O)Nc2ccc(C)cc2)cc1` [1,3-bis(4-tolyl)urea] it is 266 °C.
With `Cc1ccc([N+](=O)[O-])cc1C` [4-nitro-1,2-dimethylbenzene] the figure was 31 °C; with `CCOC(=O)c1ccc(N=C=O)cc1` [4-(ethoxycarbonyl)phenyl isocyanate], 30 °C; with `CCCCCC(C)=O` [Heptan-2-one], -35 °C.
With `N/N=C/c1ccccc1O` [salicylaldehyde hydrazone] the figure was 97 °C.
As for `C=C(C)C(=O)OC` [methyl methacrylate], the melting point is -48 °C.
The figure for `COc1cccc(C=O)c1OC` [2,3-dimethoxybenzaldehyde] is 52 °C; for `O=C(O)c1ccc(OCc2ccccc2)cc1F` [4-benzyloxy-2-fluorobenzoic acid] it is 167 °C; for `OCc1ccccc1CO` [1,2-benzenedimethanol] it is 64 °C.
As for `CC(C)CCCC(C)(C)O` [2,6-dimethyl-2-heptanol], the melting point is -10 °C.
As for `OCc1ccccc1` [benzyl alcohol], the melting point is -15 °C.
Turning to `CC(=O)c1ccc(Cl)cc1` [4'-chloroacetophenone], the melting point amounted to 19 °C.
In turn, `NS(=O)(=O)c1cc(C(=O)O)c(NCc2ccco2)cc1Cl` [Furosemide] came in with a melting point of 206 °C.
`CC(C)(C)NCC(O)COc1cccc2c1CC(O)C(O)C2` (stereo not given) [nadolol] had a melting point of 124 °C.
In turn, `COc1ccc(B(O)O)c(Cl)c1` [2-chloro-4-methoxybenzeneboronic acid] came in with a melting point of 202 °C.
Regarding `COS(=O)(=O)c1ccc(C)cc1` [methyl p-toluenesulfonate], the melting point was determined as 26 °C.
For `c1ccc2cc3ccccc3cc2c1` [Anthracene], the melting point is 216 °C.
`O=C1OC(c2ccccc2)=NC1=Cc1ccc(-c2ccccc2)o1` [2-Phenyl-4-(5-phenyl-furan-2-ylmethylene)-4H-oxazol-5-one]: the melting point came to 143 °C.
The molecule `CCCCOC(=O)c1ccc(O)cc1` [Butyl 4-hydroxybenzoate] yielded a melting point of 69 °C.
With `Cn1c(/C(C#N)=N/Nc2cccc(Cl)c2)nc2ccccc21`, the melting point came out at 166 °C.
With `Clc2cccc(Cl)c2N=C1/NCCN1` [clonidine] the figure was 130 °C.
The figure for `O=[N+]([O-])c1c(O)cccc1O` [2-nitroresorcinol] is 83 °C.
The figure for `O=C1Nc2ccccc2C1=O` [Isatin] is 203 °C; for `COC(=O)c1ccc(C(=O)OC)nc1` [dimethyl pyridine-2,5-dicarboxylate] it is 162 °C; for `C=Cc1ccccc1C(N)=O` [o-vinylbenzamide] it is 152 °C.
With `O=C(O)c1ccco1` [furoic acid], the melting point worked out at 134 °C.
Turning to `O=C(O)c1c(Cl)cccc1[N+](=O)[O-]` [2-chloro-6-nitrobenzoic acid], the melting point stood at 164 °C.
With `ClC1C(Cl)C(Cl)C(Cl)C(Cl)C1Cl` (stereo not given) [lindane] the figure was 114 °C.
With `Cc1cc(/C=C2\SC(=Nc3ccccc3)N=C2O)c(C)n1-c1ccc(F)cc1` [OSM-S-10] the figure was 278 °C; with `ON=C1CCCCC1` [cyclohexanone oxime], 89 °C; with `N#CCc1cccc(O)c1` [m-hydroxy_phenylacetonitrile], 53 °C.
Take `C1=C\CCCC\C=C/1` [(1Z,3Z)-Cycloocta-1,3-diene]: the melting point is -53 °C.
For the molecule `CCCCC(CC)COP(=O)(OCC(CC)CCCC)OCC(CC)CCCC` (stereo not given) [Tris(2-ethylhexyl) phosphate], the melting point is -70 °C.
Turning to `C#CCCCCCCCC` [1-decyne], the melting point is -44 °C.
The figure for `Cc1ccc(C)c2c1C(=O)OC2O` (stereo not given) [3-hydroxy-4,7-dimethyl-2-benzofuran-1(3H)-one] is 158 °C; for `CCCCCCCCC(CCCCCC)C(=O)O` (stereo not given) [2-n-hexyldecanoic acid] it is 10 °C.
In turn, `NC(=O)c1ccc(CO)cc1` [p-hydroxymethyl_benzamide] registered a melting point of 135 °C.
The figure for `CC(Cc1ccccc1)NCCC(c1ccccc1)c1ccccc1` (stereo not given) [Prenylamine] is 36.5 °C; for `CC(C)(C)OC(=O)N1CCC[C@H]1CO` [N-boc-L-prolinol] it is 61 °C.
With `N#CCc1ccccc1[N+](=O)[O-]` [2-nitrophenylacetonitrile] the figure was 83 °C; with `COc1ccc(/C=C/[N+](=O)[O-])c(OC)c1` [2,4-dimethoxy-beta-nitrostyrene], 100 °C; with `Oc1c(Br)cc(Br)c2cccnc12` [5,7-dibromo-8-hydroxyquinoline], 201 °C.
The figure for `CCCCCCCCSc1cc(N(NC(=O)OC(C)(C)C)C(=O)OC(C)(C)C)cc(SCCCCCCCC)c1SCCCCCCCC` is 51.5 °C.
Regarding `CC(=O)OCc1ccccc1` [benzyl_acetate], the melting point was -51 °C.
The figure for `CCOC(=O)CC(=O)OCC` [Diethyl malonate] is -50 °C; for `Cc1ccc(C)c(/C=C/c2ccc(-c3ccc(/C=C/c4cc(C)ccc4C)cc3)cc2)c1` [4,4'-bis(2,5-dimethylstyryl)biphenyl] it is 198 °C; for `CC(CCc1oc2ccccc2c1-c1ccc(C)o1)=NO` it is 105 °C.
Regarding `CC(C)(O)c1ccccc1` [2-phenyl-2-propanol], the melting point stood at 34 °C.
The figure for `Cc1ccc(C(=O)O)cc1Br` [3-bromo-4-methylbenzoic_acid] is 200 °C; for `C=C(F)Cl` [1-Chloro-1-fluoroethene] it is -169 °C.
Turning to `Cc1nccnc1C` [2,3-dimethylpyrazine], the melting point was -12 °C.
With `NC(c1ccccc1)(c1ccccc1)c1ccccc1` [tritylamine] the figure was 102 °C; with `ClC(Cl)=C(c1ccc(Cl)cc1)c1ccc(Cl)cc1` [4,4'-DDE], 89 °C; with `O=Cc1cnc2ccccc2c1` [quinoline-3-carboxaldehyde], 70 °C.
`CCCC(N)=O` [butyramide] came in with a melting point of 116 °C.
The figure for `COc1cc(Cl)cc(B(O)O)c1` [3-chloro-5-methoxybenzeneboronic acid] is 187 °C; for `OB(O)c1ccc(Cl)c(Cl)c1` [3,4-dichlorobenzeneboronic acid] it is 272 °C; for `CC(C)(C)OO` [tert-Butyl hydroperoxide] it is -3 °C.
`OB(O)c1ccc(F)cc1C(F)(F)F` [4-fluoro-2-(trifluoromethyl)benzeneboronic acid]: the melting point came out at 185 °C.
With `C=Cc1ccc(N)cc1` [4-aminostyrene] the figure was 24 °C.
With `O=C2\C=C(/N(N2c1ccccc1)C)C` [antipyrine] the figure was 111 °C and 112 °C and 109 °C.
Take `Clc1nc(Cl)nc(Cl)n1` [2,4,6-Trichloro-1,3,5-triazine]: the melting point was found to be 146 °C.
`O=C(OCc1ccccc1)c1ccccc1` [benzyl benzoate] registered a melting point of 19 °C.
For the molecule `CSC(SC)=C(C#N)C(N)=O` [2-Cyano-3,3-bis(methylsulfanyl)acrylamide], the melting point is 102 °C.
`CCOP(O)OCC` [diethyl phosphite]: the melting point is -70 °C.
With `COCCOC` [1,2-Dimethoxyethane] the figure was -58 °C; with `CC(C)[C@H](N)C(=O)O` [L-Valine], 308 °C.
In the case of `c1ccc2c3c([nH]c2c1)CCCC3` [1,2,3,4-tetrahydrocarbazole], the melting point was determined as 119 °C.
`CCOC(=O)C1=C(C)N=NC1C` (stereo not given) [ethyl 3,5-dimethyl-1H-pyrazole-4-carboxylate] yielded a melting point of 119 °C.
The figure for `COc1ccc2c(=O)cc(-c3ccccc3)oc2c1` [7-methoxyflavone] is 110 °C; for `CC(C)c1ccccc1` [cumene] it is -96 °C.

These data come from the Bradley open melting point set (2014).
